# According to US10716305B2, “Anti-bacterial compositions” (priority 2015, dated 2020):
# Read-outs that look alike come from different tables or passages of the source.
# Columns and labels:
# bovine corneas = test: OECD Bovine Corneal Opacity and Permeability Test (BCOP); settings: 0.75 ml, 10-minute exposure
# Experimental: This protocol is based on the methodology described in the current OECD Guideline for the Testing of Chemicals #437.
# Following a 10-minute exposure for each group of dosed corneas, opacity measurements and sodium fluorescein permeability were determined.
# MRSA = test: Comparative efficacy study, oral gavage, MRSA induction IP; assay type: in vivo, BALB/C mice; settings: oral treatment for 7 days, Composition A 100 mg/kg, antibiotics per RX dose converted to mice
# Experimental: Efficacy Study in comparison to leading anti-MRSA antibiotics was conducted in BALB/C mice.
# 7a. Administration Route: Oral Gavage
# Group 1 (6 mice males)—MRSA Induction IP no treatment
# Group 2 (6 mice males)—MRSA Induction IP—oral treatment for 7 days
# Group 3 (6 mice males)—No Induction—oral treatment for 7 days
# For the antibiotics the dose was as per RX prescription converted to mice Body Weights.
# 1—Erythromycin 250 mg/pt b.i.d. equals 2.1 mg/20 g mouse/day 300 mg total/12 mice
# 2—Clindamycin 150 mg/pt b.i.d. equals 1.25 mg/20 g mouse/day 200 mg total/12 mice
# 3—Vancomycine 250 mg/pt b.i.d. equals 2.1 mg/20 g mouse/day 300 mg total/12 mice
# [1] = test system: BALB/C 3T3 mouse fibroblast cell line; test: 3T3 Neutral Red Uptake Phototoxicity Assay; assay type: cell-based; settings: for EC50: Mus musculus
# Experimental: The cytotoxicity and phototoxicity of the test composition to 3T3 cells (in the presence or absence of UVA light) was assessed by Neutral Red Uptake. The 3T3 Neutral Red Uptake Phototoxicity Assay (3T3 NRU PT), based on the OECD Guideline for Testing of Chemicals: […] An Ultraviolet-Visible light (UV-VIS) spectral scan was performed on a solution containing 0.1% of the test composition in a solution of 1% DMSO/HBSS. […] For both the range-finding screen and the definitive test of the 3T3 assay, BALB/C 3T3 cells were seeded in the central 60 wells of duplicate 96-well microplates and maintained in culture for approximately 24 hours. The two 96-well plates were then preincubated with eight different concentrations of the test composition for approximately one hour. After preincubation, one plate was irradiated with a dose of 5 J/cm^2 Solar Simulated Light (SSL, containing wavelengths in the UVA and visible regions with >99% of UVB blocked out), while the duplicate plate was kept in the dark (No SSL). After UV irradiation, the treatment medium was replaced with culture medium and, after approximately 24 hours, cell viability was determined by neutral red uptake for three hours. A range finding screen was performed to determine the acceptable concentrations for the definitive test. MS Excel® was used to calculate the EC50 values and Photo-Irritant Factor (PIF) for the test article and the Chlorpromazine (CPZ) positive control in both the Screen and the Definitive test.
# [2] = test system: MatTek EpiDerm tissue (Reconstructed Human Epidermis); test: MatTek EpiDerm Skin Irritation Test (SIT); assay type: cell-based; settings: 60 minutes treatment
# Experimental: This test was conducted to predict dermal irritation potential of test articles in the context of identification and classification of skin irritation hazard according to the European Union (EU) classification ([…] or no label), United Nations Globally Harmonized System of Classification and Labeling of Chemicals (GHS) classification system (Category 2 and non-irritants), and OECD Guideline for the Testing of Chemicals No. 439-In Vitro Skin Irritation: Reconstructed Human Epidermis Test Method. This study was designed based on MatTek protocol in vitro EpiDermTM Skin Irritation Test. MatTek EpiDermTM tissue samples were treated in triplicate with the test composition, Negative Control and Positive Control for 60 minutes. Following treatment and subsequent incubation time, the viability of the tissues was determined using Methyl thiazole tetrazolium (MTT) uptake and reduction. The absorbance of each sample was measured at 540 nm. The viability was then expressed as a percent of control values. If the mean tissue viability was ≤50%, the test material was classified as an irritant; if the mean tissue viability was […].
smiles,measurement,setting,value
"CCO [100% Ethanol, Ethanol]",Corrected Mean Opacity Score,bovine corneas,22.66
same,In Vitro Irritation Score (IVIS),bovine corneas,32.34
"CN[C@H](CC(C)C)C(=O)N[C@H]1C(=O)N[C@@H](CC(N)=O)C(=O)N[C@H]2C(=O)N[C@H]3C(=O)N[C@H](C(=O)N[C@H](C(=O)O)c4cc(O)cc(O)c4-c4cc3ccc4O)[C@H](O)c3ccc(c(Cl)c3)Oc3cc2cc(c3O[C@@H]2O[C@H](CO)[C@@H](O)[C@H](O)[C@H]2O[C@H]2C[C@](C)(N)[C@H](O)[C@H](C)O2)Oc2ccc(cc2Cl)[C@H]1O [vancomycin, Vancomycin]",blood cell culture,MRSA,one colony
"CN(C)CCCN1c2ccccc2Sc2ccc(Cl)cc21 [CPZ, Chlorpromazine]",EC50,"[1]; BALB/c3T3, light or radiation study, 5 J/cm^2 Solar Simulated Light, range tested 0.22-3.16 μg/ml, read-out: EC50 + SSL",0.4 µg/mL
same,EC50,"[1]; BALB/c3T3, dark, range tested 6.81-100 μg/ml, read-out: EC50 No SSL",18.8 µg/mL
same,PIF (Photo-Irritant Factor),[1]; definitive test,47.0
CC[C@H]1OC(=O)[C@H](C)[C@@H](O[C@H]2C[C@@](C)(OC)[C@@H](O)[C@H](C)O2)[C@H](C)[C@@H](O[C@@H]2O[C@H](C)C[C@H](N(C)C)[C@H]2O)[C@](C)(O)C[C@@H](C)C(=O)[C@H](C)[C@@H](O)[C@]1(C)O [Erythromycin],blood cell culture,MRSA,two colonies
"CCCCCCCCCCCCOS(=O)(=O)[O-].[Na+] [5% Sodium Dodecyl Sulfate, Sodium Dodecyl Sulfate]",Irritancy Classification,[2],"Irritant (mean tissue viability was ≤50%, the test material was classified as an irritant)"
same,Mean Tissue Viability,"[2]; MTT, percent of control",3.1%
